This is an account of results in patent US20250051340A1, “TRIAZOLONE DERIVATIVE SALT AS NEUTROPHIL ELASTASE INHIBITOR” (CHIESI FARMACEUTICI S.P.A., priority 2021, published 2025).

Like-named read-outs stand apart in the source and are kept apart here. A value given as a limit tells only on which side of the number the result lay.

Data set [1] is described as follows: Solubility in water at RT. It counts as physicochemical. The method, then: The complete dissolution of the material was visually observed.
A saturated solution of hemi-pamoate salt in water at RT was prepared, with a theoretical concentration of about 2 mg/ml. The solid in excess was filtered out and the content of the solution was quantified by LC/UV at different check points until 24 hours.

In data set [2] the target is T1, human neutrophil elastase (HNE) (Homo sapiens, UniProt P08246).
T1 sequence (P08246 30-267): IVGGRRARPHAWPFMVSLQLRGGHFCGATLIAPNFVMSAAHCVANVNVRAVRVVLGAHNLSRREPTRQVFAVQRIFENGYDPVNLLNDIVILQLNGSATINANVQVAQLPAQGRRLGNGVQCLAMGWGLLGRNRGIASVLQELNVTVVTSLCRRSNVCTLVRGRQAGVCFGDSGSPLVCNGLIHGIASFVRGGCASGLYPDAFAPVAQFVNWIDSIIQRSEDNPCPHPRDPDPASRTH
Briefly: HNE-induced lung injury assay (BAL fluid haemoglobin content). It counts as in vivo, rat. The settings on record: i.t.; for % Inhibition of HNE-induced BAL fluid haemoglobin content at 3 μg/Kg / % Inhibition of HNE-induced BAL fluid haemoglobin content at 30 μg/Kg / % Inhibition of HNE-induced BAL fluid haemoglobin content at 300 μg/Kg: male Sprague Dawley rats, wet formulation, 3 h before HNE 100 U/rat, vs HNE-treated vehicle control. As to the method:
Then, one hour after the PBS or HNE administration animals were sacrificed and bronchoalveolar lavage (BAL) was performed in order to assess the HNE-induced lung injury measured as haemoglobin concentration. BAL fluid samples were centrifuged at 800 g for 15 min at 4° C. The supernatant was collected, and the pellet was re-suspended in 3 mL of distilled water. A standard curve with known volumes of lysated blood cells was made from a stem solution of lysated blood cells. 150 µL of standards and samples were transferred in duplicate to a 96-well plate and the OD measured at 412 nm. Percentage of compound efficacy (assessed as inhibition of HNE-induced haemoglobin content in BALF) was calculated following this formula: 100−[(mean of haemoglobin concentration of test compound treated rats exposed to HNE)−(mean of haemoglobin concentration of vehicle treated rats exposed to PBS)]/[(mean of haemoglobin concentration of vehicle treated rats exposed to HNE)−(mean of haemoglobin concentration of vehicle treated rats exposed to PBS)]×100.

For data set [3] the following is noted: rat, in vivo.
Procedure: (§1) In addition, the effects of different (2-{5-Cyano-2-[(R)-6-methoxycarbonyl-7-methyl-3-oxo-8-(3-trifluoromethyl-phenyl)-2,3,5,8-tetrahydro-[1,2,4]triazolo[4,3-a]pyrimidin-5-yl]-phenyl}-ethyl)-trimethyl-ammonium salts on lung function parameters were also assessed in rats by head-out plethysmography in order to compare the potential local adverse effects of each salt of (2-{5-Cyano-2-[(R)-6-methoxycarbonyl-7-methyl-3-oxo-8-(3-trifluoromethyl-phenyl)-2,3,5,8-tetrahydro-[1,2,4]triazolo[4,3-a]pyrimidin-5-yl]-phenyl}-ethyl)-trimethyl-ammonium.
(§2) The duration of aerosol exposure was of 60 minutes. On the day of dosing, animals were placed into the plethysmograph tubes for at least 30 minutes prior to dosing and respiratory parameters: respiratory rate, tidal volume, and PenH were continuously recorded for at least 30 minutes pre-dose, 60 minutes during dosing (exposure) and 90 minutes post-exposure. The respiratory parameters were recorded every minute for a total period of 3 hours using the EMMS eDacq system (PLY231, EMMS, Bordon, United Kingdom).
The nature of data set [4]: Head-out plethysmography (HOP) assay, lung function parameters. The settings on record: male Wistar rats, single snout-only inhalation, dry powder, 0.7 and 7 mg/kg, during or after dosing.
Procedure: as §1, §2
Where [5] appears, read: thermodynamic from solid, read-out: Solubility.

What is called solubility is how much of the substance goes into solution per volume. `COC(=O)C1=C(C)N(c2cccc(C(F)(F)F)c2)c2n[nH]c(=O)n2[C@@H]1c1ccc(C#N)cc1CC[N+](C)(C)C` [Hemi-pamoate, (2-{5-Cyano-2-[(R)-6-methoxycarbonyl-7-methyl-3-oxo-8-(3-trifluoromethyl-phenyl)-2,3,5,8-tetrahydro-[1,2,4]triazolo[4,3-a]pyrimidin-5-yl]-phenyl}-ethyl)-trimethyl-ammonium hemi-pamoate]: the solubility in data set [1] (setting [5]) turned out to be 0.17 mg/mL. In data set [2], the “% Inhibition of HNE-induced BAL fluid haemoglobin content at 3 μg/Kg” value stood at 30%. Further, the “% Inhibition of HNE-induced BAL fluid haemoglobin content at 30 μg/Kg” value in data set [2] (30 μg/kg) was 43%. In addition, the “% Inhibition of HNE-induced BAL fluid haemoglobin content at 300 μg/Kg” value in data set [2] (300 μg/kg) was 80%. In addition, the “inhibition of BAL fluid haemoglobin levels, dry powder, 30 μg/kg” value in data set [2] (rats, dry powder formulation, 30 μg/kg, vs HNE-treated vehicle (lactose) control) came out at 4%. Also, in data set [2] (rats, dry powder formulation, 300 μg/kg, vs HNE-treated vehicle (lactose) control), the “inhibition of BAL fluid haemoglobin levels, dry powder, 300 μg/kg” value was found to be 54%. In addition, the “inhibition of BAL fluid haemoglobin levels, dry powder, 600 μg/kg” value in data set [2] (rats, dry powder formulation, 600 μg/kg, vs HNE-treated vehicle (lactose) control) is reported as 60%. Also, in data set [3], the “% of Reduction of tidal volume” value was “No variation of any lung function parameters”.

In the case of `COC(=O)C1=C(C)N(c2cccc(C(F)(F)F)c2)c2n[nH]c(=O)n2[C@@H]1c1ccc(C#N)cc1CC[N+](C)(C)C.[Br-]` [Bromide, (2-{5-Cyano-2-[(R)-6-methoxycarbonyl-7-methyl-3-oxo-8-(3-trifluoromethyl-phenyl)-2,3,5,8-tetrahydro-[1,2,4]triazolo[4,3-a]pyrimidin-5-yl]-phenyl}-ethyl)-trimethyl-ammonium bromide], the “% of Reduction of tidal volume” value in data set [3] (male, Wistar) was 38%. In addition, in data set [3] (male, Wistar, 0.55 mg/kg), the “increase in PenH area compared to vehicle” value is recorded as “about 8 fold” and the “increase in respiratory rate, maximum effect” value was 59%. In data set [3] (male, Wistar, 5.5 mg/kg), the “increase in PenH area compared to vehicle” value is listed as approximately 20 fold and the “reduction in tidal volume, maximum” value is 38%.

With `COC(=O)C1=C(C)N(c2cccc(C(F)(F)F)c2)c2n[nH]c(=O)n2[C@@H]1c1ccc(C#N)cc1CC[N+](C)(C)C.CS(=O)(=O)[O-]` [Methanesulfonate, (2-{5-Cyano-2-[(R)-6-methoxycarbonyl-7-methyl-3-oxo-8-(3-trifluoromethyl-Phenyl)-2,3,5,8-tetrahydro-[1,2,4]triazolo[4,3-a]Pyrimidin-5-yl]-phenyl}-ethyl)-trimethyl-ammonium methanesulfonate], the solubility in data set [1] (methanesulfonate) is more than 200 mg/mL. Moreover, the solubility in data set [1] (setting [5]) was more than 200 mg/mL. Further, in data set [2], the “% Inhibition of HNE-induced BAL fluid haemoglobin content at 3 μg/Kg” value turned out to be 19%. The “% Inhibition of HNE-induced BAL fluid haemoglobin content at 30 μg/Kg” value in data set [2] (30 μg/kg) stood at 30%. Further, in data set [2] (300 μg/kg), the “% Inhibition of HNE-induced BAL fluid haemoglobin content at 300 μg/Kg” value came to 73%. Moreover, the “% of Reduction of tidal volume” value in data set [3] (male, Wistar) is given as 35-39%. Further, in data set [3] (male, Wistar, 0.6 mg/kg), the “increase of PenH compared to vehicle” value is on record as “about 8 fold”; the “increase of respiratory rate, peak effect” value is given as 32%; the “reduction of tidal volume, peak effect” value is on record as 35%. In data set [3] (male, Wistar, 6 mg/kg), the “increase of PenH compared to vehicle” value is approximately 16 fold; the “increase of respiratory rate, peak effect” value was 54%; the “reduction of tidal volume, peak effect” value stood at 39%.

With “(2-{5-Cyano-2-[(R)-6-methoxycarbonyl-7-methyl-3-oxo-8-(3-trifluoromethyl-phenyl)-2,3,5,8-tetrahydro-[1,2,4]triazolo[4,3-a]pyrimidin-5-yl]-phenyl}-ethyl)-trimethyl-ammonium hemi-pamoate”, in data set [4], the “effect on lung function parameters (respiratory rate, tidal volume, PenH)” value is recorded as “does not affect any lung function parameters”.
